A short description of series [1]: physchem. Particulars: phosphate buffer, pH 7.4.
Procedure: Such stability was measured at 37° C. in simulated gastric fluid (U.S. Pat. No. XX, 1105, 1980) and in phosphate buffer (pH 7.4) by spectrodensitometric determination of 3-methylflavone-8-carboxylic acid resulting from eventual hydrolysis.
Series [2] in a line: in vivo. Particulars: mouse.
Series [3] has as its system guinea pig ileum. The series can be described thus: Antispastic or antispasmodic activity, BaCl2-induced contraction of guinea pig ileum (Magnus method). Particulars: Cavia porcellus, 1 min, read-out: ED50 (antispastic or antispasmodic activity).
Procedure: The antispastic or antispasmodic activity was evaluated following the Magnus method [Pflugers Arch. […] Two equal contractions were induced by BaCl2 at a concentration ranging between 1 and 4.10^-4 M in guinea pig ileum maintained at 30° C. in Ringer solution and aerated with Carbogen.
The test drug was administered and, one minute later, BaCl2 in the same concentration. The inhibition of the contraction was observed.
For series [4], the system named is guinea pig isolated ureter. The series can be described thus: Antispastic activity, spontaneous mobility of guinea pig isolated ureter (Trendelemburg method). Particulars: Cavia porcellus.
Procedure: The smooth muscle relaxant activity of the novel flavone derivatives was also measured through the spontaneous mobility of guinea pig isolated ureter. […] The ureter was allowed to stabilize in Tyrode solution with the upper part closed and the inner part connected to a pressure transducer. The test drugs were given cumulatively and the spontaneous circular and longitudinal contractions of the ureter were measured.
Series [5] concerns guinea pig depolarized taenia coli. The series can be described thus: Calcium blocking activity on guinea pig depolarized taenia coli (Ferrari and Carpenedo). Particulars: Cavia porcellus; cumulative CaCl2, K+-depolarized guinea pig taenia coli; read-out: Calcium blocking activity ED50. Here is the method:
The calcium blocking activity was tested on guinea pig depolarized taenia coli, according to the method described by Ferrari and Carpenedo [Arch. Int. Pharmacodyn., 174, 223 (1968)]. The guinea pig taenia coli was allowed to stabilize in Tyrode solution without Ca^++. It was then washed with K2 SO4 Ringer solution and afterwards perfused with KNO3 Ringer. Cumulative concentrations of CaCl2 were added to the organ bath in absence or presence of the test drug.

Setting [6] is: guinea pig ileum, 30° C., BaCl2 1 to 4.10^-4 M, drug one minute before BaCl2, inhibition of contraction.
Where [7] appears, read: circular contractions, cumulative dosing, read-out: Antispastic Activity Isolated Ureter ED50, circular contractions.
The mark [8] stands for this setting: longitudinal contractions, cumulative dosing, read-out: Antispastic Activity Isolated Ureter ED50, longitudinal contractions.

Each structure is given as a SMILES string. Counter-ions that a name gives are not always drawn. Like-named read-outs stand apart in the source and are kept apart here.

Broadly, the share remaining is what is left of the initial amount, in per cent. As usually defined, the LD50 is the dose expected to kill half of the subjects tested. The low end stands for greater toxicity, the high end for lower toxicity. In series [1], `Cc1c(-c2ccccc2)oc2c(C(=O)OC3CCCN(C)C3)cccc2c1=O.Cl` (centres unmarked) [Active compound 11, N-methyl-3-piperidyl 3-methylflavone-8-carboxylate hydrochloride] came in with an amount remaining at 1 h of 100% and an amount remaining at 3 h of 100%. This molecule also showed a median lethal dose (LD50) in series [2] (ip) of 360 µmol/kg. Besides, in series [2] (po), the median lethal dose (LD50) came to 770 µmol/kg.
As to `Cc1c(-c2ccccc2)oc2c(C(=O)OC3CC4CCC(C3)N4C)cccc2c1=O` (centres unmarked) [Active compound 12, 3-tropinyl-3-methylflavone-8-carboxylate], the IC50 in series [3] amounted to 4.3 µM; in series [4] (read-out: Antispastic Activity Isolated Ureter ED50, circular contractions), 20 µM; in series [4] (read-out: Antispastic Activity Isolated Ureter ED50, longitudinal contractions), 9 µM. The amount remaining at 1 h in series [1] was 100%. This molecule also gave a share remaining at 3 h in series [1] of 100%. Further, the figures for the LD50 in series [2] (ip) and in series [2] (po) were 420 µmol/kg and 950 µmol/kg, respectively.
As to `Cc1c(-c2ccccc2)oc2c(C(=O)O[C@@H]3CCCC[C@@H]3N3CCCCC3)cccc2c1=O.Cl` (relative stereo) [Active compound 8, cis-2-piperidino-cyclohexyl 3-methyl-flavone-8-carboxylate hydrochloride], the IC50 in series [5] was determined as 7.3 µM; in series [3] (setting [6]), 2.7 µM; in series [4] (setting [7]), 5 µM; in series [4] (setting [8]), 2.5 µM. The share remaining at 1 h in series [1] was 85%. This molecule yielded an amount remaining at 3 h in series [1] of 70%. Further, the LD50 in series [2] (po) was 2160 µmol/kg.
In the case of `Cc1c(-c2ccccc2)oc2c(C(=O)OCCCN3CCCCC3C)cccc2c1=O` (centres unmarked) [Active compound 1, 3-(2-methyl-N-piperidino)-propyl 3-methylflavone-8-carboxylate hydrochloride], the IC50 in series [5] came to 24 µM; in series [3] (setting [6]), 4 µM; in series [4] (setting [7]), 8.5 µM; in series [4] (setting [8]), 6.9 µM. This molecule displayed a fraction remaining at 1 h in series [1] of 100%. Further, in series [1], the share remaining at 3 h stood at 100%. Besides, the median lethal dose (LD50) in series [2] (ip) stood at 560 µmol/kg; in series [2] (po) it was 1860 µmol/kg.
Consider `Cc1c(-c2ccccc2)oc2c(C(=O)OC(C)CN3CCCCC3)cccc2c1=O` (centres unmarked) [Active compound 3, 1-methyl-piperidino-ethyl], for which the values for the IC50 in series [5] and in series [3] (setting [6]) were 19 µM and 9.7 µM, respectively. In series [1], this molecule returned a share remaining at 1 h of 40%. For the same molecule, the share remaining at 3 h in series [1] was 30%. For the same molecule, the LD50 in series [2] (ip) was 500 µmol/kg; in series [2] (po) it was 850 µmol/kg.
Consider `Cc1c(-c2ccccc2)oc2c(C(=O)OC(CN3CCCCC3)c3ccccc3)cccc2c1=O` (centres unmarked) [Active compound 4, 1-phenyl-2-piperidino-ethyl], for which, in series [3] (setting [6]), the IC50 is 6.7 µM. Besides, in series [1], the fraction remaining at 1 h was 68% and the amount remaining at 3 h is 34%.
`Cc1c(-c2ccccc2)oc2c(C(=O)OC(C)(C)CN3CCCCC3C)cccc2c1=O` (centres unmarked) [Active compound 6]: the IC50 in series [5] is 7.5 µM; in series [3] (setting [6]), 3.4 µM; in series [4] (setting [7]), 5.3 µM; in series [4] (setting [8]), 2.5 µM. The molecule further returned a share remaining at 1 h in series [1] of 100%. Also, in series [1], the amount remaining at 3 h came to 100%.
Consider `Cc1c(-c2ccccc2)oc2c(C(=O)OC(C)CCN3CCCCC3)cccc2c1=O` (centres unmarked) [Active compound 2, 1-methyl-3-(N-piperidino)propyl], for which the IC50 in series [5] came out at 16 µM; in series [3] (setting [6]), 6.2 µM. For the same molecule, the share remaining at 1 h in series [1] turned out to be 100%. The same molecule showed an amount remaining at 3 h in series [1] of 100%. In addition, the LD50 in series [2] (ip) is 160 µmol/kg; in series [2] (po), 690 µmol/kg.
As to `Cc1c(-c2ccccc2)oc2c(C(=O)OCCN3CCCCC3)cccc2c1=O` [FLAVOXATE, 2-(N-piperidino)ethyl 3-methylflavone-8-carboxylate hydrochloride, reference compound], the IC50 in series [5] was 25 µM; in series [3] (setting [6]), 5.6 µM. Also, in series [1], the share remaining at 1 h is 22%. Also, the share remaining at 3 h in series [1] worked out at 10%. In addition, the median lethal dose (LD50) in series [2] (ip) came out at 900 µmol/kg; in series [2] (po) it was 1890 µmol/kg.
For `Cc1c(-c2ccccc2)oc2c(C(=O)O[C@@H]3CCCC[C@H]3N3CCCCC3)cccc2c1=O` (relative stereo) [Active compound 14], the IC50 in series [3] (setting [6]) was determined as 7.7 µM.
For the molecule `Cc1c(-c2ccccc2)oc2c(C(=O)OC(C)(C)CN3CCCCC3)cccc2c1=O` [Active compound 5, 1,1-dimethyl-2-(N-piperidino)ethyl-3-methylflavone-8-carboxylate], the IC50 in series [5] is 8.6 µM; in series [3] (setting [6]), 2.4 µM; in series [4] (setting [7]) it was 12 µM; in series [4] (setting [8]), 2.8 µM. The molecule further returned an amount remaining at 1 h in series [1] of 96%. The share remaining at 3 h in series [1] was found to be 91%.
With `Cc1c(-c2ccccc2)oc2c(C(=O)OC3CCCCC3CN3CCCCC3)cccc2c1=O` (centres unmarked) [Active compound 9, 2-piperidinomethyl cyclohexyl], the IC50 in series [5] stood at 26 µM; in series [3] (setting [6]), 4 µM. The same molecule yielded an amount remaining at 1 h in series [1] of 88%. Also, the share remaining at 3 h in series [1] stood at 87%. In addition, the values for the 50% lethal dose (LD50) in series [2] (ip) and in series [2] (po) were 190 µmol/kg and 1080 µmol/kg, respectively.
In turn, `Cc1c(-c2ccccc2)oc2c(C(=O)OCC(O)CN3CCCCC3)cccc2c1=O` (centres unmarked) [Active compound 7, 2-hydroxy-3-(N-piperidino)propyl 3-methylflavone-8-carboxylate] yielded a share remaining at 1 h in series [1] of 44%. In series [1], the fraction remaining at 3 h came to 25%. The LD50 amounted to 580 µmol/kg in series [2] (ip) and 3100 µmol/kg in series [2] (po).
The matching figures for `Cc1c(-c2ccccc2)oc2c(C(=O)OC3CCN(C)CC3)cccc2c1=O` [Active compound 10, 1-methyl-4-piperidinyl]: 100%, 100%, 150 µmol/kg and 850 µmol/kg.
